Source: patent US7368457B2, “Bridged N-arylsulfonylpiperidines as gamma-secretase inhibitors” (Schering Corporation, priority 2003, dated 2008)
pIC50: −log10 of the molar value. Like-named read-outs stand apart in the source and are kept apart here.

Target: T1, gamma secretase (Homo sapiens, UniProt P49768)
T1 construct: endogenous in cells; host or cells: Membranes of 293 T-REx cells, clone pTRE.15; The enzyme is endogenous; only the substrate SPC99-Lon is transfected
Assay: Gamma secretase activity in membranes of 293 cells expressing C99 (SPC99-Lon), Aβ 40 / Aβ 42 ECL immunoassay
Assay type: biochemical
Text: Reagents. Antibodies WO2, G2-10, and G2-11 were obtained from Dr. Konrad Beyreuther (University of Heidelberg, Heidelberg, Germany). WO2 recognizes residues 5-8 of Aβ peptide, while G2-10 and G2-11 recognize the specific C-terminal structure of Aβ 40 and Aβ 42, respectively. Biotin-4G8 was purchased from Senetec (St. Louis, Mo.). All tissue culture reagents used in this work were from Life Technologies, Inc., unless otherwise specified. Pepstatin A was purchased from Roche Molecular Biochemicals; DFK167 was from Enzyme Systems Products (Livermore, Calif.).
cDNA Constructs, Tissue Culture, and Cell Line Construction. […] Upon insertion into the membrane, the 17 amino acid signal peptide is processed, leaving an additional leucine at the N-terminus of Aβ SPC99-Ion was cloned into the pcDNA4/TO vector (Invitrogen) and transfected into 293 cells stably transfected with pcDNA6/TR, which is provided in the T-REx system (Invitrogen). The transfected cells were selected in Dulbecco's modified Eagle's media (DMEM) supplemented with 10% fetal bovine serum, 100 units/mL penicillin, 100 µg/mL streptomycin, 250 µg/mL zeocin, and 5 µg/mL blasticidin (Invitrogen). Colonies were screened for Aβ production by inducing C99 expression with […] tetracycline for 16-20 h and analyzing conditioned media with a sandwich immunoassay (see below). One of the clones, designated as pTRE.15, was used in these studies.
Membrane Preparation. C99 expression in cells was induced with […] tetracycline for 20 h. The cells were pretreated with […] 12-myristate 13-acetate (PMA) and […] brefeldin A (BFA) for 5-6 h at 37 C before harvesting. The cells were washed 3 times with cold phosphate-buffered saline (PBS) and harvested in buffer A containing 20 mM Hepes (pH 7.5), 250 mM sucrose, 50 mM KCl, 2 mM EDTA, 2 mM EGTA, and Complete protease inhibitor tablets (Roche Molecular Biochemicals). The cell pellets were flash-frozen in liquid nitrogen and stored at −70 C before use.
To make membranes, the cells were resuspended in buffer A and lysed in a nitrogen bomb at 600 psi. The cell lysate was centrifuged at 1500 g for 10 min to remove nuclei and large cell debris. The supernatant was centrifuged at 100000 g for 1 h. The membrane pellet was resuspended in buffer A plus 0.5 M NaCl, and the membranes were collected by centrifugation at 200000 g for 1 h. The salt-washed membrane pellet was washed again in buffer A and centrifuged at 100000 g for 1 h. The final membrane pellet was resuspended in a small volume of buffer A using a Teflon-glass homogenizer. The protein concentration was determined, and membrane aliquots were flash-frozen in liquid nitrogen and stored at −70° C.
γ-Secretase Reaction and Aβ Analysis. To measure γ-secretase activity, membranes were incubated at 37° C. for 1 h in 50 μL of buffer containing 20 mM Hepes (pH 7.0) and 2 mM EDTA. At the end of the incubation, Aβ 40 and Aβ 42 were measured using an electrochemiluminescence (ECL)-based immunoassay. Aβ 40 was identified with antibody pairs TAG-G2-10 and biotin-WO2, while Aβ 42 was identified with TAG-G2-11 and biotin-4G8. The ECL signal was measured using an ECL-M8 instrument (IGEN International, Inc.) according to the manufacturer's instructions. The data presented were the means of the duplicate or triplicate measurements in each experiment.

[1] = gamma secretase membrane assay, ranges given as 'about 0.1 to about 1.0 μM' and 'about 1 to about 10 μM', read-out: IC50

Structure (SMILES)	pIC50 [1]	pIC50
O=C(O[C@H]1CCC2CCCC1N2S(=O)(=O)c1ccc(Cl)cc1)N1CCN(CCO)CC1 (stereo partly shown) [Example 14]	6.00 to 7.00	–
O=C(O[C@@H]1CCC2CCCC1N2S(=O)(=O)c1ccc(Cl)cc1)N1CCC(N2CCCCC2)CC1 (stereo partly shown) [Example 15]	–	5.00 to 6.00
O=C(O[C@H]1CCC2CCCC1N2S(=O)(=O)c1ccc(Cl)cc1)N1CCC(N2CCCCC2)CC1 (stereo partly shown) [Example 16]	–	~7.80
O=C(O[C@H]1CCC2CCCC1N2S(=O)(=O)c1ccc(Cl)cc1)N1CCN(CC2CC2)CC1 (stereo partly shown) [Example 17]	6.00 to 7.00	–
CC(C)N1CCN(C(=O)O[C@H]2CCC3CCCC2N3S(=O)(=O)c2ccc(Cl)cc2)CC1 (stereo partly shown) [Example 21]	6.00 to 7.00	–
O=C(O[C@H]1CCC2CCCC1N2S(=O)(=O)c1ccc(Cl)cc1)N1CCN(CCCO)CC1 (stereo partly shown) [Example 22]	6.00 to 7.00	–
O=C(O[C@H]1CCC2CCCC1N2S(=O)(=O)c1ccc(Cl)cc1)N1CCN(c2ccccc2)CC1 (stereo partly shown) [Example 23]	6.00 to 7.00	–
O=C(O[C@H]1CCC2CCCC1N2S(=O)(=O)c1ccc(Cl)cc1)N1CCC(O)(c2ccc(Cl)cc2)CC1 (stereo partly shown) [Example 24]	6.00 to 7.00	–
CCN(CC)C(=O)C1CCCN(C(=O)O[C@H]2CCC3CCCC2N3S(=O)(=O)c2ccc(Cl)cc2)C1 (stereo partly shown) [Example 25]	6.00 to 7.00	–
CN1CCN(C(=O)O[C@H]2CCC3CCCC2N3S(=O)(=O)c2ccc(Cl)cc2)CC1 (stereo partly shown) [Example 26]	6.00 to 7.00	–
COC(=O)C1CCN(C(=O)O[C@H]2CCC3CCCC2N3S(=O)(=O)c2ccc(Cl)cc2)CC1 (stereo partly shown) [Example 27]	6.00 to 7.00	–
O=C(O[C@H]1CCC2CCCC1N2S(=O)(=O)c1ccc(Cl)cc1)N1CCC[C@H]1CO (stereo partly shown) [Example 28]	6.00 to 7.00	–
CCN(Cc1ccncc1)C(=O)O[C@H]1CCC2CCCC1N2S(=O)(=O)c1ccc(Cl)cc1 (stereo partly shown) [Example 29]	6.00 to 7.00	–
O=C(O[C@@H]1C=CC2CCCC1N2S(=O)(=O)c1ccc(Cl)cc1)N1CCC(N2CCCCC2)CC1 (stereo partly shown) [Example 34]	6.00 to 7.00	–
O=C(OC1CC2CCC1N2S(=O)(=O)c1ccc(Cl)cc1)N1CCC(N2CCCCC2)CC1 (stereo not shown) [Example 35]	5.00 to 6.00	–
O=C(OC1C[C@H]2CCC1N2S(=O)(=O)c1ccc(Cl)cc1)N1CCN(C2CCCCC2)CC1 (stereo partly shown) [Example 36]	5.00 to 6.00	–
CCN1CCN(C(=O)OC2C[C@H]3CCC2N3S(=O)(=O)c2ccc(Cl)cc2)CC1 (stereo partly shown) [Example 37]	5.00 to 6.00	–
CC(C)N1CCN(C(=O)OC2C[C@H]3CCC2N3S(=O)(=O)c2ccc(Cl)cc2)CC1 (stereo partly shown) [Example 40]	5.00 to 6.00	–
O=C(O[C@H]1CCC2CCC1N2S(=O)(=O)c1ccc(Cl)cc1)N1CCC(N2CCCCC2)CC1 (stereo partly shown) [Example 43]	6.00 to 7.00	–
